# Measured values reported in PubChem BioAssay (NCI).
#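 Results reflect a 48-hour exposure of cells in 96-well plates to compound at five concentrations. At the TGI there is no net growth.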
# Key:
# Assay in all cases: inhibition of tumour cell growth, NCI panel, 48 h
# M14 melanoma = system: M14 melanoma
# MDA-N = system: MDA-N
# 786-0 renal = system: 786-0 renal
# EKVX NSCLC = system: EKVX NSCLC
# SN12C renal = system: SN12C renal
# CCRF-CEM leukemia = system: CCRF-CEM leukemia
# UO-31 renal = system: UO-31 renal
# OVCAR-4 ovarian = system: OVCAR-4 ovarian
# HCT-116 colon = system: HCT-116 colon
# RPMI-8226 leukemia = system: RPMI-8226 leukemia
# MDA-MB-435 = system: MDA-MB-435
# SF-268 CNS = system: SF-268 CNS
# MOLT-4 leukemia = system: MOLT-4 leukemia
# TK-10 renal = system: TK-10 renal
# SNB-19 CNS = system: SNB-19 CNS
# U251 CNS = system: U251 CNS
# NCI-H23 lung = system: NCI-H23 lung
# NCI/ADR-RES ovarian = system: NCI/ADR-RES ovarian
# DU-145 prostate = system: DU-145 prostate
# SR leukemia = system: SR leukemia
# OVCAR-8 ovarian = system: OVCAR-8 ovarian
# NCI-H522 lung = system: NCI-H522 lung
# OVCAR-3 ovarian = system: OVCAR-3 ovarian
# SNB-75 CNS = system: SNB-75 CNS
# ACHN renal = system: ACHN renal
# K-562 leukemia = system: K-562 leukemia
# MCF7 breast = system: MCF7 breast
# SW-620 colon = system: SW-620 colon
# T-47D breast = system: T-47D breast
# SK-OV-3 ovarian = system: SK-OV-3 ovarian
# IGROV1 ovarian = system: IGROV1 ovarian
# HT29 colon = system: HT29 colon
# OVCAR-5 ovarian = system: OVCAR-5 ovarian
# NCI-H226 lung = system: NCI-H226 lung
# UACC-62 melanoma = system: UACC-62 melanoma
# HOP-62 NSCLC = system: HOP-62 NSCLC
# UACC-257 melanoma = system: UACC-257 melanoma
# SK-MEL-2 melanoma = system: SK-MEL-2 melanoma
# CAKI-1 renal = system: CAKI-1 renal
# COLO 205 colon = system: COLO 205 colon
# MALME-3M melanoma = system: MALME-3M melanoma
# PC-3 prostate = system: PC-3 prostate
# HS 578T breast = system: HS 578T breast
# SF-295 CNS = system: SF-295 CNS
# SK-MEL-28 melanoma = system: SK-MEL-28 melanoma
# NCI-H460 lung = system: NCI-H460 lung
# SF-539 CNS = system: SF-539 CNS
# HL-60(TB) leukemia = system: HL-60(TB) leukemia
# SK-MEL-5 melanoma = system: SK-MEL-5 melanoma
# RXF 393 renal = system: RXF 393 renal
# HCT-15 colon = system: HCT-15 colon
# BT-549 breast = system: BT-549 breast
# LOX IMVI melanoma = system: LOX IMVI melanoma
# KM12 colon = system: KM12 colon
# A549 NSCLC = system: A549 NSCLC
# MDA-MB-231 breast = system: MDA-MB-231 breast
# HCC-2998 colon = system: HCC-2998 colon
# HOP-92 NSCLC = system: HOP-92 NSCLC
structure (smiles),measurement,setting,value
CC(C)(C)[Si](C)(C)OCC1OC(n2cnc3c(N)ncnc32)C(O)C1O (centres undefined),TGI,M14 melanoma,> 100 µM
same,TGI,MDA-N,> 100 µM
same,TGI,786-0 renal,> 100 µM
same,TGI,EKVX NSCLC,> 100 µM
same,TGI,SN12C renal,> 100 µM
same,TGI,CCRF-CEM leukemia,> 100 µM
same,TGI,UO-31 renal,> 100 µM
same,TGI,OVCAR-4 ovarian,> 100 µM
same,TGI,HCT-116 colon,> 100 µM
same,TGI,RPMI-8226 leukemia,> 100 µM
same,TGI,MDA-MB-435,> 100 µM
same,TGI,SF-268 CNS,> 100 µM
same,TGI,MOLT-4 leukemia,> 100 µM
same,TGI,TK-10 renal,> 100 µM
same,TGI,SNB-19 CNS,> 100 µM
same,TGI,U251 CNS,> 100 µM
same,TGI,NCI-H23 lung,> 100 µM
same,TGI,NCI/ADR-RES ovarian,> 100 µM
same,TGI,DU-145 prostate,> 100 µM
same,TGI,SR leukemia,> 100 µM
same,TGI,OVCAR-8 ovarian,> 100 µM
same,TGI,NCI-H522 lung,> 100 µM
same,TGI,OVCAR-3 ovarian,> 100 µM
same,TGI,SNB-75 CNS,> 100 µM
same,TGI,ACHN renal,> 100 µM
same,TGI,K-562 leukemia,> 100 µM
same,TGI,MCF7 breast,> 100 µM
same,TGI,SW-620 colon,> 100 µM
same,TGI,T-47D breast,> 100 µM
same,TGI,SK-OV-3 ovarian,> 100 µM
same,TGI,IGROV1 ovarian,> 100 µM
same,TGI,HT29 colon,> 100 µM
same,TGI,OVCAR-5 ovarian,> 100 µM
same,TGI,NCI-H226 lung,> 100 µM
same,TGI,UACC-62 melanoma,> 100 µM
same,TGI,HOP-62 NSCLC,> 100 µM
same,TGI,UACC-257 melanoma,> 100 µM
same,TGI,SK-MEL-2 melanoma,> 100 µM
same,TGI,CAKI-1 renal,> 100 µM
same,TGI,COLO 205 colon,> 100 µM
same,TGI,MALME-3M melanoma,> 100 µM
same,TGI,PC-3 prostate,> 100 µM
same,TGI,HS 578T breast,> 100 µM
same,TGI,SF-295 CNS,> 100 µM
same,TGI,SK-MEL-28 melanoma,> 100 µM
same,TGI,NCI-H460 lung,> 100 µM
same,TGI,SF-539 CNS,> 100 µM
same,TGI,HL-60(TB) leukemia,> 100 µM
same,TGI,SK-MEL-5 melanoma,89.5 µM
same,TGI,RXF 393 renal,> 100 µM
same,TGI,HCT-15 colon,> 100 µM
same,TGI,BT-549 breast,> 100 µM
same,TGI,LOX IMVI melanoma,> 100 µM
same,TGI,KM12 colon,> 100 µM
same,TGI,A549 NSCLC,> 100 µM
same,TGI,MDA-MB-231 breast,> 100 µM
COC(=O)c1c(OC)cc2cc3c(c(O)c2c1C)C(=O)C1(O)C(=O)C=C(OC)C(OC(=O)CC(C)N)=C1C3=O (centres undefined),TGI,M14 melanoma,> 100 µM
same,TGI,MDA-N,> 100 µM
same,TGI,786-0 renal,> 100 µM
same,TGI,EKVX NSCLC,72.4 µM
same,TGI,SN12C renal,> 100 µM
same,TGI,CCRF-CEM leukemia,49.5 µM
same,TGI,UO-31 renal,> 100 µM
same,TGI,OVCAR-4 ovarian,90.1 µM
same,TGI,HCC-2998 colon,87.9 µM
same,TGI,HCT-116 colon,> 100 µM
same,TGI,RPMI-8226 leukemia,39.7 µM
same,TGI,MDA-MB-435,> 100 µM
same,TGI,SF-268 CNS,> 100 µM
same,TGI,MOLT-4 leukemia,76.3 µM
same,TGI,TK-10 renal,> 100 µM
same,TGI,SNB-19 CNS,> 100 µM
same,TGI,U251 CNS,> 100 µM
same,TGI,NCI-H23 lung,> 100 µM
same,TGI,NCI/ADR-RES ovarian,> 100 µM
same,TGI,DU-145 prostate,> 100 µM
same,TGI,SR leukemia,47.6 µM
same,TGI,OVCAR-8 ovarian,92.9 µM
same,TGI,NCI-H522 lung,> 100 µM
same,TGI,OVCAR-3 ovarian,> 100 µM
same,TGI,SNB-75 CNS,18 µM
same,TGI,ACHN renal,> 100 µM
same,TGI,MCF7 breast,67.3 µM
same,TGI,SW-620 colon,> 100 µM
same,TGI,T-47D breast,> 100 µM
same,TGI,IGROV1 ovarian,69.1 µM
same,TGI,HT29 colon,43.7 µM
same,TGI,OVCAR-5 ovarian,> 100 µM
same,TGI,UACC-62 melanoma,> 100 µM
same,TGI,HOP-62 NSCLC,> 100 µM
same,TGI,HOP-92 NSCLC,> 100 µM
same,TGI,UACC-257 melanoma,> 100 µM
same,TGI,SK-MEL-2 melanoma,> 100 µM
same,TGI,CAKI-1 renal,> 100 µM
same,TGI,COLO 205 colon,> 100 µM
same,TGI,PC-3 prostate,> 100 µM
same,TGI,HS 578T breast,96.6 µM
same,TGI,SF-295 CNS,> 100 µM
same,TGI,SK-MEL-28 melanoma,> 100 µM
same,TGI,NCI-H460 lung,> 100 µM
same,TGI,SF-539 CNS,> 100 µM
same,TGI,HL-60(TB) leukemia,50.8 µM
same,TGI,SK-MEL-5 melanoma,> 100 µM
same,TGI,HCT-15 colon,> 100 µM
same,TGI,BT-549 breast,> 100 µM
same,TGI,LOX IMVI melanoma,> 100 µM
same,TGI,KM12 colon,42.7 µM
same,TGI,A549 NSCLC,> 100 µM
same,TGI,MDA-MB-231 breast,43.4 µM
